Species on record: Rattus norvegicus
Test: DrugMatrix - Regimen: Daily Repeat
Format: toxicity, organism-based, Sprague-Dawley
Design: regimen Daily Repeat, gender Male, age 6-8 weeks
Conditions: in vivo, po, […], route oral GAVAGE; for ABSOLUTE BASOPHIL / ABSOLUTE EOSINOPHIL / ABSOLUTE LYMPHOCYTE / ABSOLUTE MONOCYTE / ABSOLUTE SEGMENTED NEUTROPHIL / BASOPHIL / EOSINOPHIL / ERYTHROCYTE COUNT / HEMATOCRIT / HEMOGLOBIN / LEUKOCYTE COUNT / LYMPHOCYTE / MEAN CORPUSCULAR HEMOGLOBIN / MEAN CORPUSCULAR HEMOGLOBIN CONCENTRATION / MEAN CORPUSCULAR VOLUME / MONOCYTE / NEUTROPHIL / NUCLEATED RED BLOOD CELLS / PLATELET COUNT: tissue Blood; for ALANINE AMINOTRANSFERASE / ALBUMIN / ALKALINE PHOSPHATASE / ASPARTATE AMINOTRANSFERASE / BLOOD UREA NITROGEN / CARBON DIOXIDE / CHLORIDE / CHOLESTEROL / CREATINE PHOSPHOKINASE / CREATININE / GLUCOSE / LACTATE DEHYDROGENASE / LIPASE / PHOSPHORUS / POTASSIUM / SODIUM / TOTAL BILIRUBIN / TOTAL PROTEIN / URIC ACID: tissue Plasma
[1] = 30 mg/kg, dose level Low, time 7 day
[2] = 60 mg/kg, 72 h, dose level High, time 3 day
[3] = 60 mg/kg, dose level High, time 7 day

## S=C=Nc1cccc2ccccc12 [1-NAPHTHYLISOTHIOCYANATE]
[1]
  ABSOLUTE BASOPHIL: 0 CELLS/uL
  ABSOLUTE EOSINOPHIL: 0 CELLS/uL
  ABSOLUTE LYMPHOCYTE: 18648 CELLS/uL
  ABSOLUTE MONOCYTE: 658.33 CELLS/uL
  ABSOLUTE SEGMENTED NEUTROPHIL: 6027 CELLS/uL
  BASOPHIL: 0%
  EOSINOPHIL: 0%
  ERYTHROCYTE COUNT: 5.54 x10E6/uL
  HEMATOCRIT: 31.6%
  HEMOGLOBIN: 13.02 G/DL
  LEUKOCYTE COUNT: 25.33 x10E3/uL
  LYMPHOCYTE: 74.17%
  MEAN CORPUSCULAR HEMOGLOBIN: 23.55 pg
  MEAN CORPUSCULAR HEMOGLOBIN CONCENTRATION: 41.2 G/DL
  MEAN CORPUSCULAR VOLUME: 57.07 fL
  MONOCYTE: 2.33%
  NEUTROPHIL: 23.5%
  NUCLEATED RED BLOOD CELLS: 0 /100WBC
  PLATELET COUNT: 1468.17 x10E3/uL
  ALANINE AMINOTRANSFERASE: 195.83 u/L
  ALBUMIN: 3.78 G/DL
  ALKALINE PHOSPHATASE: 515.67 u/L
  ASPARTATE AMINOTRANSFERASE: 302 u/L
  BLOOD UREA NITROGEN: 11.83 mg/dL
  CARBON DIOXIDE: 27.67 mmol/L
  CHLORIDE: 96.67 MEQ/L
  CHOLESTEROL: 137 mg/dL
  CREATINE PHOSPHOKINASE: 291.83 u/L
  CREATININE: 0.18 mg/dL
  GLUCOSE: 98.33 mg/dL
  LACTATE DEHYDROGENASE: 164.67 u/L
  LIPASE: 11 u/L
  PHOSPHORUS: 8.68 mg/dL
  POTASSIUM: 6.99 MEQ/L
  SODIUM: 139.38 MEQ/L
  TOTAL BILIRUBIN: 3.15 mg/dL
  TOTAL PROTEIN: 6.52 G/DL
  URIC ACID: 0.93 mg/dL
[2]
  ABSOLUTE BASOPHIL: 0 CELLS/uL
  ABSOLUTE EOSINOPHIL: 24.67 CELLS/uL
  ABSOLUTE LYMPHOCYTE: 8862.67 CELLS/uL
  ABSOLUTE MONOCYTE: 317.33 CELLS/uL
  ABSOLUTE SEGMENTED NEUTROPHIL: 2312 CELLS/uL
  BASOPHIL: 0%
  EOSINOPHIL: 0.33%
  ERYTHROCYTE COUNT: 6.41 x10E6/uL
  HEMATOCRIT: 39.08%
  HEMOGLOBIN: 14.75 G/DL
  LEUKOCYTE COUNT: 11.52 x10E3/uL
  LYMPHOCYTE: 77%
  MEAN CORPUSCULAR HEMOGLOBIN: 23 pg
  MEAN CORPUSCULAR HEMOGLOBIN CONCENTRATION: 37.77 G/DL
  MEAN CORPUSCULAR VOLUME: 60.88 fL
  MONOCYTE: 2.5%
  NEUTROPHIL: 20.17%
  NUCLEATED RED BLOOD CELLS: 0.17 /100WBC
  PLATELET COUNT: 1204.67 x10E3/uL
  ALANINE AMINOTRANSFERASE: 183.5 u/L
  ALBUMIN: 3.77 G/DL
  ALKALINE PHOSPHATASE: 566.83 u/L
  ASPARTATE AMINOTRANSFERASE: 458.5 u/L
  BLOOD UREA NITROGEN: 11.67 mg/dL
  CARBON DIOXIDE: 28.67 mmol/L
  CHLORIDE: 94.67 MEQ/L
  CHOLESTEROL: 312 mg/dL
  CREATINE PHOSPHOKINASE: 420.5 u/L
  CREATININE: 0.28 mg/dL
  GLUCOSE: 125.17 mg/dL
  LACTATE DEHYDROGENASE: 229.33 u/L
  LIPASE: 12.5 u/L
  PHOSPHORUS: 8.75 mg/dL
  POTASSIUM: 6.43 MEQ/L
  SODIUM: 140.67 MEQ/L
  TOTAL BILIRUBIN: 3.47 mg/dL
  TOTAL PROTEIN: 6.93 G/DL
  URIC ACID: 0.85 mg/dL
[3]
  ABSOLUTE BASOPHIL: 0 CELLS/uL
  ABSOLUTE EOSINOPHIL: 0 CELLS/uL
  ABSOLUTE LYMPHOCYTE: 17693.83 CELLS/uL
  ABSOLUTE MONOCYTE: 897.83 CELLS/uL
  ABSOLUTE SEGMENTED NEUTROPHIL: 12275 CELLS/uL
  BASOPHIL: 0%
  EOSINOPHIL: 0%
  ERYTHROCYTE COUNT: 5.43 x10E6/uL
  HEMATOCRIT: 31.22%
  HEMOGLOBIN: 12.83 G/DL
  LEUKOCYTE COUNT: 30.87 x10E3/uL
  LYMPHOCYTE: 60.83%
  MEAN CORPUSCULAR HEMOGLOBIN: 23.63 pg
  MEAN CORPUSCULAR HEMOGLOBIN CONCENTRATION: 41.02 G/DL
  MEAN CORPUSCULAR VOLUME: 57.68 fL
  MONOCYTE: 2.67%
  NEUTROPHIL: 36.5%
  NUCLEATED RED BLOOD CELLS: 0 /100WBC
  PLATELET COUNT: 1574.83 x10E3/uL
  ALANINE AMINOTRANSFERASE: 179.83 u/L
  ALBUMIN: 3.78 G/DL
  ALKALINE PHOSPHATASE: 516 u/L
  ASPARTATE AMINOTRANSFERASE: 418 u/L
  BLOOD UREA NITROGEN: 12.33 mg/dL
  CARBON DIOXIDE: 26.67 mmol/L
  CHLORIDE: 94 MEQ/L
  CHOLESTEROL: 384.5 mg/dL
  CREATINE PHOSPHOKINASE: 339.67 u/L
  CREATININE: 0.1 mg/dL
  GLUCOSE: 96.33 mg/dL
  LACTATE DEHYDROGENASE: 286.67 u/L
  LIPASE: 12.17 u/L
  PHOSPHORUS: 8.75 mg/dL
  POTASSIUM: 6.62 MEQ/L
  SODIUM: 137.88 MEQ/L
  TOTAL BILIRUBIN: 8.2 mg/dL
  TOTAL PROTEIN: 6.48 G/DL
  URIC ACID: 0.87 mg/dL
